Laboratory results reported in patent US20050004037A1, “Osteogenic growth oligopeptides as stimulants of hematopoiesis” (Yissum Research Development Company of the Hebrew …, priority 2001, published 2005).
Ends that are not written are not given here.

Assays:
[1] = Evaluation of OGP(10-14) toxicity after 15 days of subcutaneous administration; type: in vivo, mice; conditions: 10 nmol/mouse s.c., versus placebo-treated controls
Protocol: Fifty-five mice were evaluated for possible OGP(10-14)-related toxicity after 15 days of subcutaneous administration, at the dose of 10 nmol/mouse, and results were compared to those obtained in 30 placebo-treated controls.

[2] = test system: white blood cells, monocytes, immature cells; experiment: Total and differential blood cell counts after cyclophosphamide (CFA) chemoablation; type: in vivo, mice; conditions: CFA-induced aplasia
Protocol: FIGS. 2A-C—OGP(10-14) stimulates blood cell counts in dose and time dependent manner in mice undergoing chemoablation of hematopoietic tissues Male ICR mice weighing 25 gm each were subjected to chemoablation using cyclophosphamide (CFA), 5 mg/mouse, injected intraperitoneally on days 0 and 1, one injection each day. OGP(10-14) was dissolved in “sterile water for injection” and 0.1 ml of the indicated doses or water only (vehicle) was administered subcutaneously in the nape daily from day −7 to day −1 and from day +2 to day +8. Data are mean±SD obtained in 20 animals per condition. *: significant over CFA+vehicle, p<0.05; **: significant over 1 nmol OGP(10-14) group, p<0.05.
In this set of experiments bone marrow ablation was induced by an intraperitoneal injection of cyclophophamide (CFA, SIGMA, 5 mg/mouse in 150 (1 sterile PBS) for two consecutive days (designated “day 0” and “day 1”. This protocol has been demonstarted to induce severe, reversible leucopoena with L. D. <30 [Spangrude, G. J. et al, Science, 241:58 (1988)]. The lowest bone marrow cell counts were recorded six days after the first injection. […]

[3] = test system: CFU-GM, CFU-GEMM and BFU-E; experiment: Ex vivo progenitor cell (colony forming) assays on bone marrow of treated chemoablated mice; type: in vivo; conditions: bone marrow of CFA-ablated mice, 10 nmol/day s.c.
Protocol: Male ICR mice weighing 25 gm each were subjected to chemoablation using cyclophosphamide (CFA), 5 mg/mouse, injected intraperitoneally on days 0 and 1, one injection each day. OGP(10-14) was dissolved in “sterile water for injection” at 100 nmol/ml concentration and 0.1 ml of this solution or water only (vehicle) was administered subcutaneously in the nape daily for the indicated period(s). Bone marrow was harvested on day 9 and analyzed for colony forming units. Data are meam±SD obtained in 10 animals per condition.
To evaluate different dosing regimens of OGP(10-14), chemoablated mice were subjected to daily treatment with OGP(10-14), as outlined in FIG. 4. The mice were sacrificed on day +15, the femoral bone marrow was flushed and single cell suspensions (prepared as above) were subjected to ex vivo progenitor cell (colony forming) assays. The OGP(10-14) effect on the formation of CFU-GM, CFU-GEMM and BFU-E was compared to that of G-CSF (FIG. 4).
Bone marrow cells were recovered on day +10 after injection of CFA from all groups. Cells were diluted to 2×10^6/ml in Iscove's Modified Dulbecco Medium(IMFM) with 2% FBS and added to methylcellulose medium according to the manufacturer's recommendations (MethoCult, StemCell Technologies Inc., Vancouver, Canada). 2×10^4 cells were plated in each test. Both M3434 (for murine GM-CFU, and GEMM-CFU) and M3334 for (murine BFU-E assay) were used. M3434 was supplemented with recombinant murine interleukine-3 (rmIL-3, 10 ng/ml), recombinant human interleukine-6 (rhIL-6, 10 ng/ml), recombinant murine stem cell factor (rmSCF, 50 ng/ml) and recombinant human erythropoietin (rhEpo, 3 U/ml). […] the only factor included was Epo. Duplicate tests for each mouse were blindly examined after 14 days of incubation according to the protocol procedures.

[4] = OGP(10-14) effect only where treatment began 7 days before chemoablation

With YGFGG [OGP(10-14), Tyr-Gly-Phe-Gly-Gly] the “haematological parameters: number of WBC, RBC, PLT, Hb level” value [1] was “did not induce any significant modifications”, the “survival, behaviour, body weight gain and gross examination” value [1] was “No differences were found” and the “toxicity at the employed doses” value [2] was “without any valuable toxicity”.

B1: G-CSF: granulocyte colony-stimulating factor, positive reference (protein, UniProt P09919 31-207, looked up)
Granulocyte …: TPLGPASSLPQSFLLKCLEQVRKIQGDGAALQEKLVSECATYKLCHPEELVLLGHSLGIPWAPLSSCPSQALQLAGCLSQLHSGLFLYQGLLQALEGISPELGPTLDTLQLDVADFATTIWQQMEELGMAPALQPTQGAMPAFASAFQRRAGGVLVASHLQSFLEVSYRVLRHLAQP
With B1 the CFU-GM [3] was “had an effect”, the BFU-E [3, 4] was “effect only on the CFU-GM” and the CFU-GEMM [3, 4] was “effect only on the CFU-GM”.
